Results taken from US8188121B2, “Substituted pyridines as antiparasitic AZA teraryl compounds” (The University of North Carolina at Chapel Hill, priority 2005, dated 2012).
Counter-ions that a name gives are not always drawn. Like-named read-outs stand apart in the source and are kept apart here.

Tests used:
[1] = test system: L-6 rat mycoblast cells; assay: cells
Procedure: (§1) In vitro antiprotozoal activities were measured following established protocols. See Ismail, M. A., et al., J. Med. Chem., 46, 4761-4769 (2003); Stephens, C. E., et al., Bioorg. Med. Chem. Lett., 13, 2065-2069 (2003) (in vitro assay against Leishmania donovani).
(§2) Testing methods are as described above in Example 17.

[2] = test system: Trypanosoma brucei rhodesiense (T. b. r.); assay: In vitro antiprotozoal activity against T. b. r.; type: cell-based
Procedure: as §1, §2

[3] = test system: STIB 900 strain of Trypanosoma brucei rhodesiense; assay: T. b. r. STIB 900 mouse model; type: in vivo; conditions: for responders at 20 mg/kg / responders at 100 mg/kg: Trypanosoma brucei, 1440 h; for responders at 20 mg/kg: read-out: Cures (converted); for responders at 100 mg/kg: read-out: Cures
Procedure: The activities of compounds 20, 18, 21, 48, 23c, 24c, 5, 4, and 10 against the STIB 900 strain of Trypanosoma brucei rhodesiense (T. b. r.) in a mouse model are shown in Table 3. […] Groups of four mice were infected intraperitoneally with 2×10^5 bloodstream forms of T. b. r. STIB 900 which originates from a patient in Tanzania. On days 3, 4, 5, and 6 post-infection the experimental groups were treated with the indicated compound, either by the intraperitoneal route, or for prodrugs, by the oral route. Usually the highest tolerated dose was used. The highest tolerated dose was determined in a pretoxicological experiment.
Parasitemia of the mice was checked daily up to day 14 post-infection and thereafter 2 times per week up to day 60. One group of mice was not treated and acted as control. Untreated control animals expire between day 7 and 8 post-infection. For relapsing mice, the day of death was recorded and the survival time determined. For the data shown in Table 3, cures reflect the number of mice that survive and are parasite free for 60 days. Survival reflects the average days of survival.
as §2

[4] = test system: Plasmodium falciparum (P. f.); assay: In vitro antiprotozoal activity against P. f.; type: cell-based
Procedure: as §1, §2

[5] = read-out: CT IC50, Table 1, L-6 cells
[6] = Table 1, k/K = thousand, read-out: T. b. r. IC50
[7] = 100 mg/kg po, days 3-6 post-infection, average days of survival
[8] = 100 mg/kg po, days 3-6 post-infection, mice surviving parasite free for 60 days, groups of four
[9] = Rattus norvegicus, L6, read-out: CT IC50, Table 1, L-6 cells
[10] = Plasmodium falciparum, Table 1, k/K = thousand
[11] = Rattus norvegicus, L6, read-out: CT IC50
[12] = Trypanosoma brucei, RHODESIENSE, Table 1, k/K = thousand, read-out: T. b. r. IC50
[13] = 20 mg/kg ip, days 3-6 post-infection, average days of survival
[14] = 20 mg/kg ip, days 3-6 post-infection, mice surviving parasite free for 60 days, groups of four
[15] = read-out: CT IC50, Table 4, L-6 cells
[16] = Table 2, K = thousand, read-out: T. b. r. IC50

N=C(NO)c1ccc(-c2ccc(-c3ccc(C(=N)NO)cc3)nc2)cc1 [Compound 24c, Phenyl[1,1′]pyridyl[4′,1″]phenyl-4,4″-bis-N-hydroxycarboxamidine]
IC50 [1, 5]: > 184 µM
IC50 [2, 6]: 9.3 µM
Survival [3, 7]: >35.75 days
Cures [3, 8]: 1/4
IC50 ([4]; Table 1, k/K = thousand): 7.6 µM

CON=C(N)c1ccc(-c2ccc(-c3ccc(C(N)=NOC)cc3)c(C(F)(F)F)c2)cc1 [Compound 25b, 2′-Trifluoromethyl-[4′,1′;4′,1″]terphenyl-4,4″-bis-methoxycarboxamidine]
IC50 [1, 5]: 42.2 µM
IC50 [2, 6]: 36.9 µM
IC50 ([4]; Table 1, k/K = thousand): 3.8 µM

Cl.NC(=NO)c1ccc(-c2ccc(-c3ccc(C(N)=NO)nc3)cc2)cn1 [Compound 67, 1,4-Bis-[2′-(N-hydroxyamidinopyridin-5′-yl)]-phenylene hydrochloride salt]
IC50 [1, 5]: 8.1 µM
IC50 [2, 6]: 12 µM
Cures ([3]; 25 mg/kg po, Table 5): 0/4
Survival ([3]; 25 mg/kg po, Table 5): 16.25 days
IC50 ([4]; Table 1, k/K = thousand): 2.4 µM

N=C(N)c1ccc(-c2cnc(-c3ccc(C(=N)N)cc3)nc2)cc1 [Compound 27, 2,5-Bis-(4′-amidinophenyl)-pyrimidine]
IC50 [1, 9]: 40.9 µM
IC50 [4, 10]: 0.0005 µM

N=C(N)c1ccc(Cc2ccc(-c3ccc(C(=N)N)cc3)nc2)cc1 [Compound 36a, 2-(4′-Amidinophenyl)-5-(4″-amidinobenzyl)pyridine acetate salt]
IC50 [1, 5]: 18.1 µM
IC50 [2, 6]: 0.041 µM
IC50 ([4]; Table 1, k/K = thousand): 0.011 µM

NC(=NO)c1ccc(-c2ccc(-c3ccc(C(N)=NO)cc3)c(F)c2)cc1 [Compound 24a, 2′-Fluoro-[1,1′;4′,1″]terphenyl-4,4″-bis-N-hydroxycarboxamidine]
IC50 [1, 5]: 29.1 µM
IC50 [2, 6]: > 201 µM
IC50 ([4]; Table 1, k/K = thousand): 0.925 µM

CON=C(N)c1ccc(-c2ccc(-c3ccc(C(N)=NOC)cc3)c(F)c2)cc1 [Compound 25a, 2′Fluoro-[1,1′;4′,1″]terphenyl-4,4″-bis-methoxycarboxamidine]
IC50 [2, 6]: > 51.5 µM
IC50 ([4]; Table 1, k/K = thousand): 4.2 µM

CC(=O)O.N=C(N)c1ccc(-c2ccc(-c3ccc(C(=N)N)o3)cc2)cc1 [Compound 5, 5-(4′-Amidinobiphenyl-4-yl)-furan-2-carboxamidine acetate salt]
IC50 [1, 11]: 2 µM
IC50 [2, 12]: 0.005 µM
Survival [3, 13]: 21.25 days
responders at 20 mg/kg [3, 14]: 0%
IC50 [4, 10]: 0.001 µM

CNC(=N)Nc1ccc(-c2ccc(-c3ccc(NC(=N)NC)cc3)cc2)cc1 [Compound 51a, 4,4″-Bis(N′-methyl)-guanidino-[1,1′;4′,1″]terphenyl]
IC50 [1, 5]: 65.1 µM
IC50 [2, 6]: 0.018 µM
IC50 ([4]; Table 1, k/K = thousand): 0.007 µM

CCOC(=O)N=C(Nc1ccc(-c2ccc(-c3ccc(NC(=NC(=O)OCC)NC(C)C)cc3)cc2)cc1)NC(C)C [Compound 50c, 4,4″-Bis(N′-ethoxycarbonyl-N″-isopropyl)-guanidino-[1,1′;4′,1″]terphenyl]
IC50 [1, 5]: 5.3 µM
IC50 [2, 6]: 14.2 µM
IC50 ([4]; Table 1, k/K = thousand): 4.5 µM

CON=C(N)c1ccc(-c2ccc(-c3ccc(C(N)=NOC)nc3)cn2)cc1.Cl [Compound 91, Phenyl[1,2′]pyridinyl[5′,5″]pyridinyl-4,2″-bis-N-methoxyamidine hydrochloride salt]
IC50 [1, 15]: 12.8 µM
IC50 ([2]; Table 4, read-out: T. b. IC50): 1.98 µM
Cures ([3]; 25 mg/kg ip, Table 5): 0/4
Survival ([3]; 25 mg/kg ip, Table 5): 22.25 days
IC50 ([4]; Table 4): 2.15 µM

CN(C)CC(=O)ON=C(N)c1ccc(-c2ccc(-c3ccc(C(N)=NOC(=O)CN(C)C)nc3)cc2)cn1 [Compound 69, 1,4-Bis-{2′-[N-(N′,N′-dimethylaminoacetoxy)amidinopyridin-5′-yl]}-phenylene]
Cures ([3]; 25 mg/kg po, Table 5): 0/4
Survival ([3]; 25 mg/kg po, Table 5): 28.25 days

CON=C(N)c1ccc(-c2ccc(-c3ccc(C(N)=NOC)nc3)cc2)cn1 [Compound 33, 1,4-Bis-[5′-(N-methoxyamidinopyridin-2′-yl)]phenylene]
IC50 [1, 5]: > 158 µM
IC50 [2, 6]: 82.9 µM
IC50 ([4]; Table 1, k/K = thousand): 1.2 µM

CCOC(=O)N=C(N)Nc1ccc(-c2ccc(-c3ccc(NC(N)=NC(=O)OCC)cc3)cc2)cc1 [Compound 50a, 4,4″-Bis(N′-ethoxycarbonyl)-guanidino-[1,1′;4′,1″]terphenyl]
IC50 [1, 5]: > 181 µM
IC50 [2, 6]: 142 µM
IC50 ([4]; Table 1, k/K = thousand): 1.7 µM

CONC(=N)c1ccc(-c2ccc(-c3ccc(C(=N)NOC)cc3)nc2)cc1 [Compound 25c, Phenyl[1,1′]pyridyl[4′,1″]phenyl-4,4″-bis-N-methoxycarboxamidine]
IC50 [1, 5]: > 166 µM
IC50 [2, 6]: 34.7 µM
IC50 ([4]; Table 1, k/K = thousand): 3.2 µM

CON=C(N)c1ccc(-c2ccc(-c3ccc(C(N)=NOC)cc3)c3ccccc23)cc1 [Compound 40, Phenyl[1,1′]naphthyl-[4′,1″]phenyl-4,4″-bis-N-methoxycarboxamidine]
IC50 [1]: 16.2 µM
IC50 [2, 16]: 29.5 µM
IC50 ([4]; Table 2, K = thousand): 3.9 µM

NC(=NO)c1ccc(-c2ccc(-c3ccc(C(N)=NO)cc3)cc2)cc1 [Compound 18, [1,1′;4′,1″]Terphenyl-4,4″-bis-N-hydroxycarboxamidine]
IC50 [1, 5]: > 212 µM
IC50 [2, 6]: 22.8 µM
Survival [3, 7]: 24.75 days
Cures [3, 8]: 0/4
IC50 ([4]; Table 1, k/K = thousand): > 118 µM

N=C(N)c1ccc(OCCCCCOc2ccc(C(=N)N)cc2)cc1 [pentamidine, reference compound]
Survival [3, 13]: 42.7 days
responders at 20 mg/kg [3, 14]: 0%

N=C(NO)c1ccc(-c2ccc(-c3ccc(C(=N)NO)o3)cc2)cc1 [Compound 3, N-Hydroxy-5-[4′-(N-hydroxyamidino)-biphenyl-4-yl]-furan-2-carboxamidine]
IC50 [1, 11]: 106 µM
IC50 [2, 12]: 67 µM
IC50 [4, 10]: 6.6 µM

CC(=O)O.N=C(N)c1ccc(-c2ccc(-c3ccc(C(=N)N)cc3)nc2)cc1 [Compound 23c, Phenyl[1,1′]pyridyl[4′,1″]phenyl-4,4″-bis-carboxamidine acetate salt]
IC50 [1, 5]: 49.9 µM
IC50 [2, 6]: 0.002 µM
Survival [3, 13]: >60 days
Cures [3, 14]: 4/4
IC50 ([4]; Table 1, k/K = thousand): 0.01 µM

NC(=NO)c1ccc(-c2ccc(-c3ccc(C(N)=NO)cc3)c(C(F)(F)F)c2)cc1 [Compound 24b, 2′-Trifluoromethyl-[1,1′;4′,1″]terphenyl-4,4″-bis-N-hydroxycarboxamidine]
IC50 [1, 5]: 13.3 µM
IC50 [2, 6]: 29.9 µM
IC50 ([4]; Table 1, k/K = thousand): 3.1 µM

CONC(=N)c1ccc(-c2ccc(-c3ccc(C(=N)NOC)o3)cc2)cc1 [Compound 4, N-Methoxy-5-[4′-(N-methoxyamidino)-biphenyl-4-yl]-furan-2-carboxamidine]
IC50 [1, 11]: > 206 µM
IC50 [2, 12]: 24 µM
Survival [3, 7]: 29 days
responders at 100 mg/kg [3, 8]: 0%
IC50 [4, 10]: 1.6 µM

NC(=NO)c1ccc(-c2ccc(-c3ccc(C(N)=NO)cc3)c3ccccc23)cc1 [Compound 39, Phenyl[1,1′]naphthyl-[4′,1″]phenyl-4,4″-bis-N-hydroxycarboxamidine]
IC50 [1]: 9.4 µM
IC50 [2, 16]: 13.4 µM
IC50 ([4]; Table 2, K = thousand): 9.1 µM

CCOC(=O)N=C(NC)Nc1ccc(-c2ccc(-c3ccc(NC(=NC(=O)OCC)NC)cc3)cc2)cc1 [Compound 50b, 4,4″-Bis(N′-ethoxycarbonyl-N″-methyl)-guanidino-[1,1′;4′,1″]terphenyl]
IC50 [1, 5]: 5.7 µM
IC50 [2, 6]: 7.5 µM
IC50 ([4]; Table 1, k/K = thousand): 8.9 µM

CON=C(N)c1ccc(-c2ccc(-c3ccc(C(N)=NOC)cc3)cc2)cc1 [Compound 21, [1,1′;4′,1″]Terphenyl-4,4″-bis-N-methoxycarboxamidine]
IC50 [1, 11]: 118 µM
IC50 [2, 12]: 13.8 µM
Survival [3, 7]: 20.75 days
responders at 100 mg/kg [3, 8]: 0%
IC50 [4, 10]: 0.371 µM

CON=C(N)c1ccc(-c2ccc(-c3ccc(C(N)=NOC)nc3)cc2)cn1 [Compound 68, 1,4-Bis-[2′-(N-methoxyamidinopyridin-5′-yl)]-phenylene hydrochloride salt]
IC50 ([1]; read-out: CT IC50, Table 1, L-6 cells, hydrochloride salt): > 194 µM
IC50 [1, 15]: > 193 µM
IC50 ([2]; Table 1, k/K = thousand, hydrochloride salt, read-out: T. b. r. IC50): 141 µM
IC50 ([2]; Table 4, read-out: T. b. IC50): 4.57 µM
IC50 ([4]; Table 1, k/K = thousand, hydrochloride salt): 5.5 µM
IC50 ([4]; Table 4): 0.637 µM

N=C(N)Nc1ccc(-c2ccc(-c3ccc(NC(=N)N)cn3)cc2)nc1 [Compound 55, 1,4-Bis-(5′-guanidinopyridin-2′-yl)phenylene hydrochloride salt]
IC50 [1, 9]: 152 µM
IC50 [2, 12]: 0.169 µM
IC50 [4, 10]: 0.151 µM
